From US11744830B2, “Ameliorative agent for cytokine release syndrome and so on” (TORII PHARMACEUTICAL CO., LTD., priority 2018, dated 2023)

Columns and labels:
Type in all cases: cell-based, human
IL-1β production = assay: CRS toxicity evaluation system using CAR-T cells: IL-1β; conditions: CRS toxicity evaluation system using CAR-T cells
Description: (§1) The supernatants were collected at 72 hours after the initiation of culture, and various cytokines in each supernatant were measured by FACS multiplex assay.

TNF-α production = assay: CRS toxicity evaluation system using CAR-T cells: TNF-α; conditions: CRS toxicity evaluation system using CAR-T cells
Description: as §1

[1] = tested on: IL-1β production in CD14^+ cells; assay: LPS stimulation-induced IL-1β production in CD14^+ cells; conditions: LPS
Description: (§2) Cryopreserved PBMCs were quickly thawed in a 37° C. thermostat and added to a tube containing medium. After centrifugation (at room temperature at 300 g for 10 minutes) to remove the supernatant, the cells were suspended again in the medium, followed by counting the number of viable cells. The cell suspension was centrifuged (at room temperature at 300 g for 10 minutes) to remove the supernatant, followed by addition of MACS Buffer to suspend the cells, to which Human CD14 MicroBeads were further added. After being allowed to stand on ice for 15 minutes, the cell suspension was diluted with MACS Buffer and centrifuged (at room temperature at 300 g for 10 minutes) to remove the supernatant. MACS Buffer was added to the tube, and the cells were suspended and then applied to a separatory column to separate CD14^+ cells. The CD14^+ cell fraction was diluted with the medium and then centrifuged (at room temperature at 300 g for 10 minutes). The supernatant was removed and the cells were suspended in the medium (1 mL), followed by counting the number of viable cells. The cell suspension was adjusted with the medium to 2.4×10^5 or 3×10^5 cells/mL and seeded in a 96-well plate (2.4×10^4 cells/well), which was then allowed to stand in a CO2 incubator for 1 to 2 hours.
The culture supernatants collected in 1.2.10 were quantified for IL-1β using Human IL-1β DuoSet ELISA.

IL-8 production = assay: CRS toxicity evaluation system using CAR-T cells: IL-8; conditions: CRS toxicity evaluation system using CAR-T cells
Description: as §1

[2] = tested on: IL-18 production from LPS-pretreated CD14^+ cells; assay: ATP stimulation-induced IL-18 production from LPS-pretreated CD14^+ cells; conditions: LPS-pretreated CD14^+ cells, ATP
Description: Cryopreserved PBMCs were quickly thawed in a 37° C. thermostat and added to a tube containing medium. After centrifugation (at room temperature at 300 g for 10 minutes) to remove the supernatant, the cells were suspended again in the medium, followed by counting the number of viable cells. The cell suspension was centrifuged (at room temperature at 300 g for 10 minutes) to remove the supernatant, followed by addition of MACS Buffer to suspend the cells, to which Human CD14 MicroBeads were further added. After being allowed to stand on ice for 15 minutes, the cell suspension was diluted with MACS Buffer and centrifuged (at room temperature at 300 g for 10 minutes) to remove the supernatant.
MACS Buffer was added to the tube, and the cells were suspended and then applied to a separatory column to separate CD14^+ cells. The CD14^+ cell fraction was diluted with the medium and then centrifuged (at room temperature at 300 g for 10 minutes). The supernatant was removed and the cells were suspended in the medium (1 mL), followed by counting the number of viable cells. The cell suspension adjusted with the medium to 2×10^6 cells/mL was seeded in a 96-well plate (1×10^5 cells/well) and allowed to stand in a CO2 incubator for 1 to 2 hours. […] The cells were then stimulated with LPS (final concentration: 500 ng/mL) for 6 hours at 37° C. and an ATP solution (final concentration: 5 mM) was added thereto, and the 96-well plate was further allowed to stand in a CO2 incubator for 2 hours to collect the culture supernatants.
The collected culture supernatants were quantified for IL-18 using Human IL-18 DuoSet ELISA.

[3] = tested on: VEGF production from macrophages; assay: LPS stimulation-induced VEGF production in macrophages; conditions: Macrophages, LPS
Description: CD14^+ cells were cultured in 20 ng/mL M-CSF-containing RPMI medium at 37° C. for 5 days to induce differentiation into macrophages (during which the medium was replaced once every two days with fresh 20 ng/mL M-CSF-containing RPMI medium). […] The macrophages were then stimulated with LPS (final concentration: 100 ng/mL) or RPMI medium alone at 37° C. for 3 days, followed by collecting the culture supernatants. The collected culture supernatants were quantified for VEGF using Human VEGF DuoSet ELISA.

MCP-1 production = assay: CRS toxicity evaluation system using CAR-T cells: MCP-1; conditions: CRS toxicity evaluation system using CAR-T cells
Description: as §1

[4] = tested on: OPN production from CD14^+ cells; assay: LPS stimulation-induced OPN production in CD14^+ cells; conditions: LPS
Description: as §2
The collected culture supernatants were quantified for OPN using Human OPN DuoSet ELISA.

Tocilizumab: interleukin (IL)-6R antibody (tocilizumab) approved at the same time as CAR-T cell therapy
no suppressive effect: suppressive effect on IL-1β (IL-1β production) | suppressive effect on TNF-α (TNF-α production) | suppressive effect on IL-1β production [1] | suppressive effect on IL-8 production (IL-8 production) | suppressive effect on IL-18 production [2] | effect on VEGF production from macrophages [3] | suppressive effect on MCP-1 production (MCP-1 production) | suppressive effect on OPN production [4]
